test system: NCI-H226 (lung cancer cell line); assay: In vitro cytotoxicity by MTT assay, NCI-H226; assay type: cell-based; conditions: Homo sapiens, NCI-H226, 3.7 μM, 72 h, read-out: % Cytotoxicity (100 − % cell survival) of NCI-H226 cell line
Experimental: (§1) The cancer cell line cultures of HEK 293 ([…]), BT474 (breast cancer cell line) and NCI-H226 (lung cancer) were obtained from Pasteur Institute of India, Coonoor, India, and were cultured in RPMI-1640 and 10 % heat-[…] New born calf serum with antibiotics [penicillin ([…]), streptomycin (100 μg/mL) and amphotericin B (25 μg/mL)]. The cells were maintained at 37 °C in a humidified atmosphere with 5 % CO2 and were subcultured twice a week.
(§2) The monolayer cell culture (100 μL) was trypsinized, and the cell count was adjusted to […] using medium containing 10 % new born calf serum. To each well of the 96-well microtitre plate, the diluted cell suspension (approximately 10,000 cells) (0.1 mL) was added and kept for 24 h in incubator at 37 °C in 5 % CO2 atmosphere for cell monolayer formation. After 24 h, when a partial monolayer was formed at the bottom of the well, the supernatant was flicked off, the monolayer was washed once, and different drugs, i.e. synthesized compounds (100 μL), were added to the cells in microtitre plates. The plates were then incubated at 37 °C for 3 days in 5 % CO2 atmosphere, and microscopic examination was carried out and observations recorded every 24 h. After 72 h, the sample solution in the wells was flicked off; MTT dye ([…]) was added to each well; plates were gently shaken and incubated for 4 h at 37 °C in 5 % CO2 incubator. The supernatant was removed and propanol (50 μL) was added; the plates were gently shaken to solubilize the formed formazan. The absorbance was measured using a microplate reader at a wavelength of 490 nm (Edmondson et al., [1988]; Prasad et al., [2005]; Chiruvella et al., [2008]; Chang et al., [2007]).

Row | SMILES | cytotoxicity at 3.7 µM
1 | Nc1ccc(S(=O)(=O)Nc2nnc(S(=O)(=O)NC(=O)c3ccccc3)s2)cc1 [Compound 7a] | 34.5%

same assay, conditions: Homo sapiens, NCI-H226, 11.11 μM, 72 h, read-out: % Cytotoxicity (100 − % cell survival) of NCI-H226 cell line

Row | SMILES | cytotoxicity at 11.11 µM
2 | Nc1ccc(S(=O)(=O)Nc2nnc(S(=O)(=O)NC(=O)c3ccccc3)s2)cc1 [Compound 7a] | 35.1%

same assay, conditions: Homo sapiens, NCI-H226, 33.33 μM, 72 h, read-out: % Cytotoxicity (100 − % cell survival) of NCI-H226 cell line

Row | SMILES | cytotoxicity at 33.33 µM
3 | Nc1ccc(S(=O)(=O)Nc2nnc(S(=O)(=O)NC(=O)c3ccccc3)s2)cc1 [Compound 7a] | 36.2%

same assay, conditions: Homo sapiens, NCI-H226, 100 μM, 72 h, read-out: % Cytotoxicity (100 − % cell survival) of NCI-H226 cell line

Row | SMILES | cytotoxicity at 100 µM
4 | Nc1ccc(S(=O)(=O)Nc2nnc(S(=O)(=O)NC(=O)c3ccccc3)s2)cc1 [Compound 7a] | 36.9%

test system: not listed separately; assay: In vitro cytotoxicity by MTT assay, NCI-H226; assay type: cell-based; conditions: human, NCI-H226 lung cancer cells, 0.015 μM, read-out: % Cytotoxicity (100 − % cell survival) of NCI-H226 cell line
Experimental: as §1, §2

Row | SMILES | cytotoxicity at 72 h, 0.015 µM
5 | Nc1ccc(S(=O)(=O)Nc2nnc(S(=O)(=O)NC(=O)c3ccccc3)s2)cc1 [Compound 7a] | 28.4%

test system: not listed separately; assay: In vitro cytotoxicity by MTT assay, HEK 293; assay type: cell-based, human; conditions: human, HEK 293 cells, 0.005 μM, read-out: % cytotoxicity (100 − % cell survival) of HEK 293 cell line
Experimental: as §1, §2

Row | SMILES | cytotoxicity at 72 h, 0.005 µM
6 | Nc1ccc(S(=O)(=O)Nc2nnc(S(=O)(=O)NC(=O)c3ccccc3)s2)cc1 [Compound 7a] | 23.7%

same assay, conditions: human, HEK 293 cells, 0.015 μM, read-out: % cytotoxicity (100 − % cell survival) of HEK 293 cell line

Row | SMILES | cytotoxicity at 72 h, 0.015 µM
7 | Nc1ccc(S(=O)(=O)Nc2nnc(S(=O)(=O)NC(=O)c3ccccc3)s2)cc1 [Compound 7a] | 25.8%

same assay, conditions: human, HEK 293 cells, 0.045 μM, read-out: % cytotoxicity (100 − % cell survival) of HEK 293 cell line

Row | SMILES | cytotoxicity at 72 h, 0.045 µM
8 | Nc1ccc(S(=O)(=O)Nc2nnc(S(=O)(=O)NC(=O)c3ccccc3)s2)cc1 [Compound 7a] | 26.4%

same assay, conditions: human, HEK 293 cells, 0.13 μM, read-out: % cytotoxicity (100 − % cell survival) of HEK 293 cell line

Row | SMILES | cytotoxicity at 72 h, 0.13 µM
9 | Nc1ccc(S(=O)(=O)Nc2nnc(S(=O)(=O)NC(=O)c3ccccc3)s2)cc1 [Compound 7a] | 28.6%

same assay, conditions: human, HEK 293 cells, 0.41 μM, read-out: % cytotoxicity (100 − % cell survival) of HEK 293 cell line

Row | SMILES | cytotoxicity at 72 h, 0.41 µM
10 | Nc1ccc(S(=O)(=O)Nc2nnc(S(=O)(=O)NC(=O)c3ccccc3)s2)cc1 [Compound 7a] | 30.2%

same assay, conditions: human, HEK 293 cells, 1.23 μM, read-out: % cytotoxicity (100 − % cell survival) of HEK 293 cell line

Row | SMILES | cytotoxicity at 72 h, 1.23 µM
11 | Nc1ccc(S(=O)(=O)Nc2nnc(S(=O)(=O)NC(=O)c3ccccc3)s2)cc1 [Compound 7a] | 32.5%

same assay, conditions: human, HEK 293 cells, 3.7 μM, read-out: % cytotoxicity (100 − % cell survival) of HEK 293 cell line

Row | SMILES | cytotoxicity at 72 h, 3.7 µM
12 | Nc1ccc(S(=O)(=O)Nc2nnc(S(=O)(=O)NC(=O)c3ccccc3)s2)cc1 [Compound 7a] | 32.5%

same assay, conditions: human, HEK 293 cells, 11.11 μM, read-out: % cytotoxicity (100 − % cell survival) of HEK 293 cell line

Row | SMILES | cytotoxicity at 72 h, 11.11 µM
13 | Nc1ccc(S(=O)(=O)Nc2nnc(S(=O)(=O)NC(=O)c3ccccc3)s2)cc1 [Compound 7a] | 33.5%

same assay, conditions: human, HEK 293 cells, 33.33 μM, read-out: % cytotoxicity (100 − % cell survival) of HEK 293 cell line

Row | SMILES | cytotoxicity at 72 h, 33.33 µM
14 | Nc1ccc(S(=O)(=O)Nc2nnc(S(=O)(=O)NC(=O)c3ccccc3)s2)cc1 [Compound 7a] | 34.1%

same assay, conditions: human, HEK 293 cells, 100 μM, read-out: % cytotoxicity (100 − % cell survival) of HEK 293 cell line

Row | SMILES | cytotoxicity at 72 h, 100 µM
15 | Nc1ccc(S(=O)(=O)Nc2nnc(S(=O)(=O)NC(=O)c3ccccc3)s2)cc1 [Compound 7a] | 35.7%
